{"source": "patent US6602664B2", "about": "(priority 1998, dated 2003)", "assay_type_in_all_cases": "cell-based", "key": {"[1]": {"tested_on": "HIV-1 replication in human PBM cells", "experiment": "microbe, parasite or virus in culture", "protocol": "Cells and viruses. […] Antimicrobial Agents Chemother 1992;36(11): 2423-2431.\nCell pellets were washed, centrifuged, lysed and the proviral DNA extracted as previously described. Cytotoxicity of the compounds was determined using the Promega Cell Titer 96 dye uptake assay (Madison, Wis.) in 1-2 day PHA-stimulated PBM cells after 5 days in culture. The median effective concentration (EC50) and inhibitory concentration (IC50) were derived from the computer-generated median effect plot of the dose-effect data, as described previously."}, "[2]": {"tested_on": "drug-resistant HIV-1 in PBMC", "experiment": "microbe, parasite or virus in culture", "conditions": "for EC50: Human immunodeficiency virus 1, PBMC, PBMC"}, "[3]": {"tested_on": "drug-resistant HIV-1 in MT-4", "experiment": "microbe, parasite or virus in culture"}, "[4]": {"tested_on": "recombinant HIV-1 virus isolates", "excerpt": "The aim of the study was to determine the potency of the inhibitory effect of a new generation of NRTIs on Multi Drug Resistant isolates and to compare it with their effect on wild-type HIV-1 isolates. All recombinant viruses were taken from the VIRCO repository of phenotypically and genotypically characterized virus isolates. Hirsch et al. Antiretroviral Drug Resistance Testing in Adults with HIV Infection. JAMA; 1998: 79(24) 1984-1991. See also Pauwels et al. Comprehensive HIV drug Resistance monitoring using rapid, high-throughput phenotypic and genotypic assays with correlative data analysis. Antiviral Therapy, 1998: 3: 35 Abstract 51.\nPhenotypic drug susceptibility determination of recombinant virus isolates is described in Hertogs et al. A Rapid Method for Simultaneous Detection of Phentypic Resistance to Inhibitors of Protease and Reverse Transcriptase in Recombinant HIV-1 Isolates from Patients Treated with Antiretroviral Drugs. Antimicrob. Agents Chemother. 1998; 42(2): 269-276. The basic principle of the Antivirogram® technology is the construction of chimeric HIV-1 strains composed of the protease (PR) and reverse transcriptase (RT) gene sequences which are isolated and amplified from patient viral RNA. Amplicons are subsequently transfected into CD4+T cells together with a standard laboratory isogenic (HXB2) HIV-1 DNA construct from which the PR/RT gene sequences were deleted. After homologous recombination, new viruses whose diversity reflects the original population amplified from the plasma are produced at high level from these cells.\nThe virus infectivity (CCID50) is determined by an end-point dilution method. The titer is calculated from the degree of infection, measured by the intensity of reporter-gene signal as generated by serial dilutions of the virus shock. The chimeric (clinical isolates and wild-type reference) viruses are then analyzed for their phenotypic sensitivity (i.e. susceptibility) to the different PR and RT-inhibitors in an automated reporter gene-based assay using serial dilutions of the compound. The standardisation of the Antivirogram®n assay allows for simultaneous testing of all clinically approved drugs in one 384-well microtiter plate. The experimental drugs are included in separate plates. Each plate contains multiple replicates of mock-infected wells, virus-infection control wells and blank (medium-only) well. All plates are tested in duplicate. 50% Inhibitory concentrations are calculated based on reporter signals obtained through optical reading of 384-well plates containing serial dilutions of compounds, a normalised quantity of virus and by taking into account all relevant control wells. Approval (or not) is done according to critical ranges and settings as described in the corresponding VIRCO Standard Operating Procedure.\nA more detailed description of the protocol is as follows. Samples were stored frozen. […] To confirm the genotypic pattern, genotyping (ABI-sequencing) was performed after recombination and culture of the laboratory strains by analysis of cell viability, calculation of results (dose-response curves, IC50 values), and reporting of data."}, "[5]": {"tested_on": "drug-resistant HIV-1 in HeLa HT4-6C", "experiment": "microbe, parasite or virus in culture", "conditions": "Human immunodeficiency virus 1, HeLa"}, "[6]": {"tested_on": "drug-resistant HIV-1 in MT-2", "experiment": "microbe, parasite or virus in culture", "conditions": "MT-2"}, "[7]": {"conditions": "Human immunodeficiency virus 1, PBMC, 144 h"}, "[8]": {"conditions": "clinical isolate (pre) prior to long-term ZDV monotherapy, row HIV-1 (A012D), read-out: Untreated EC50"}, "[9]": {"conditions": "clinical isolate HIV-1 (A012D:M41L?/D67N/K70R/T215F/K219Q), read-out: Selected Varient EC50"}}, "note": "Values joined by “and” are separate entries in the source; they are usually repeats but may differ in a detail not shown here. Equal entries are not always repeated. Where two headings read alike, the source gives them in different places.", "data": [{"smiles": "[N-]=[N+]=N[C@H]1C[C@H](n2ccc(=O)[nH]c2=O)O[C@@H]1CO", "note": "[CS-87, 3′-Azido-2′,3′-dideoxyuridine]", "values": [{"measurement": "m ± SE (slope of median effect plot)", "setting": "[1]", "result": "1.62 ± 0.13 and 1.50 ± 0.33 and 1.01 ± 0.01"}, {"measurement": "inhibition at 10 µM", "setting": "[1]; [7]", "result": 34.5, "unit": "%"}, {"measurement": "inhibition at 100 µM", "setting": "[1]; [7]", "result": 32, "unit": "%"}, {"measurement": "inhibition at 1000 µM", "setting": "[1]; [7]", "result": 87.3, "unit": "%"}, {"measurement": "fold change in EC50", "setting": "[2]", "result": "< 3", "unit": "fold"}, {"measurement": "EC50", "setting": "[2]; [8]", "result": 400, "unit": "nM"}, {"measurement": "EC50", "setting": "[2]; [9]", "result": 16500, "unit": "nM"}, {"measurement": "EC50", "setting": "[2]; molecular clone 1 (T215Y/M41L), read-out: Selected Varient EC50", "result": 2100, "unit": "nM"}, {"measurement": "EC50", "setting": "[2]; molecular clone (M184V/T215Y), read-out: Selected Varient EC50", "result": 1100, "unit": "nM"}, {"measurement": "EC50", "setting": "[2]; molecular clone HIV-1 (D67N/K70R/T215Y/K219Q), read-out: Selected Varient EC50", "result": 300, "unit": "nM"}, {"measurement": "EC50", "setting": "[2]; molecular clone HIV-1 (K65R), read-out: Selected Varient EC50", "result": 1100, "unit": "nM"}, {"measurement": "EC50", "setting": "[2]; molecular clone HIV-1 (L74V), read-out: Selected Varient EC50", "result": 600, "unit": "nM"}, {"measurement": "EC50", "setting": "[2]; molecular clone HIV-1 (M184V), read-out: Selected Varient EC50", "result": 600, "unit": "nM"}, {"measurement": "EC50", "setting": "[2]; molecular clone HIV-1 (T215Y), read-out: Selected Varient EC50", "result": 300, "unit": "nM"}, {"measurement": "EC50", "setting": "[2]; parent strain HIV-1 (xxLAI), row 1 (T215Y/M41L), read-out: Untreated EC50", "result": 1100, "unit": "nM"}, {"measurement": "EC50", "setting": "[2]; parent strain HIV-1 (xxLAI), row (M184V/T215Y), read-out: Untreated EC50", "result": 1100, "unit": "nM"}, {"measurement": "EC50", "setting": "[2]; parent strain HIV-1 (xxLAI), row HIV-1 (D67N/K70R/T215Y/K219Q), read-out: Untreated EC50", "result": 1100, "unit": "nM"}, {"measurement": "EC50", "setting": "[2]; parent strain HIV-1 (xxLAI), row HIV-1 (K65R), read-out: Untreated EC50", "result": 1100, "unit": "nM"}, {"measurement": "EC50", "setting": "[2]; parent strain HIV-1 (xxLAI), row HIV-1 (L74V), read-out: Untreated EC50", "result": 1100, "unit": "nM"}, {"measurement": "EC50", "setting": "[2]; parent strain HIV-1 (xxLAI), row HIV-1 (M184V), read-out: Untreated EC50", "result": 1100, "unit": "nM"}, {"measurement": "EC50", "setting": "[2]; parent strain HIV-1 (xxLAI), row HIV-1 (T215Y), read-out: Untreated EC50", "result": 1100, "unit": "nM"}, {"measurement": "EC50", "setting": "[3]; Human immunodeficiency virus 1, MT4, clinical isolate (pre) prior to long-term ZDV monotherapy, row HIV-1 (A-161), read-out: Untreated EC50", "result": 600, "unit": "nM"}, {"measurement": "EC50", "setting": "[3]; Human immunodeficiency virus 1, MT4, clinical isolate (pre) prior to long-term ZDV monotherapy, row HIV-1 (C-246), read-out: Untreated EC50", "result": 600, "unit": "nM"}, {"measurement": "EC50", "setting": "[3]; Human immunodeficiency virus 1, MT4, clinical isolate (pre) prior to long-term ZDV monotherapy, row HIV-1 (G-68), read-out: Untreated EC50", "result": 600, "unit": "nM"}, {"measurement": "EC50", "setting": "[3]; Human immunodeficiency virus 1, MT4, clinical isolate (pre) prior to long-term ZDV monotherapy, row HIV-1 (R-102), read-out: Untreated EC50", "result": 600, "unit": "nM"}, {"measurement": "EC50", "setting": "[3]; Human immunodeficiency virus 1, MT4, clinical isolate (pre) prior to long-term ZDV monotherapy, row HIV-1 (X-78), read-out: Untreated EC50", "result": 600, "unit": "nM"}, {"measurement": "EC50", "setting": "[3]; Human immunodeficiency virus 1, MT4, clinical isolate HIV-1 (A-161), long-term ZDV monotherapy, read-out: Selected Varient EC50", "result": 8600, "unit": "nM"}, {"measurement": "EC50", "setting": "[3]; Human immunodeficiency virus 1, MT4, clinical isolate HIV-1 (C-246), long-term ZDV monotherapy, read-out: Selected Varient EC50", "result": 10300, "unit": "nM"}, {"measurement": "EC50", "setting": "[3]; Human immunodeficiency virus 1, MT4, clinical isolate HIV-1 (G-68), long-term ZDV monotherapy, read-out: Selected Varient EC50", "result": 500, "unit": "nM"}, {"measurement": "EC50", "setting": "[3]; Human immunodeficiency virus 1, MT4, clinical isolate HIV-1 (R-102), long-term ZDV monotherapy, read-out: Selected Varient EC50", "result": 300, "unit": "nM"}, {"measurement": "EC50", "setting": "[3]; Human immunodeficiency virus 1, MT4, clinical isolate HIV-1 (X-78), long-term ZDV monotherapy, read-out: Selected Varient EC50", "result": 500, "unit": "nM"}, {"measurement": "activity against multiple-drug resistant forms of HIV", "setting": "[4]", "result": "active"}, {"measurement": "susceptibility of multiple dideoxynucleoside resistant viruses", "setting": "[4]", "result": "resistant"}, {"measurement": "EC50", "setting": "[5]; [8]", "result": 400, "unit": "nM"}, {"measurement": "EC50", "setting": "[5]; clinical isolate (pre) prior to long-term ZDV monotherapy, row HIV-1 (A018C), read-out: Untreated EC50", "result": 1000, "unit": "nM"}, {"measurement": "EC50", "setting": "[5]; clinical isolate (pre) prior to long-term ZDV monotherapy, row HIV-1 (A036DD), read-out: Untreated EC50", "result": 600, "unit": "nM"}, {"measurement": "EC50", "setting": "[5]; clinical isolate (pre) prior to long-term ZDV monotherapy, row HIV-1 (P022C), read-out: Untreated EC50", "result": 400, "unit": "nM"}, {"measurement": "EC50", "setting": "[5]; clinical isolate (pre) prior to long-term ZDV monotherapy, row HIV-1 (P026B), read-out: Untreated EC50", "result": 400, "unit": "nM"}, {"measurement": "EC50", "setting": "[5]; [9]", "result": 89000, "unit": "nM"}, {"measurement": "EC50", "setting": "[5]; clinical isolate HIV-1 (A018C:D67N/K70R/T215Y/K219Q), read-out: Selected Varient EC50", "result": 50000, "unit": "nM"}, {"measurement": "EC50", "setting": "[5]; clinical isolate HIV-1 (A036DD:M41L/D67N/K70R/T215Y), read-out: Selected Varient EC50", "result": 56000, "unit": "nM"}, {"measurement": "EC50", "setting": "[5]; clinical isolate HIV-1 (P022C:M41L?/D67N/K70R/T215F/K219Q), read-out: Selected Varient EC50", "result": 40000, "unit": "nM"}, {"measurement": "EC50", "setting": "[5]; clinical isolate HIV-1 (P026B:M41L?/D67N/K70R/T215Y), read-out: Selected Varient EC50", "result": 100000, "unit": "nM"}, {"measurement": "EC50", "setting": "[6]; Human immunodeficiency virus 1, MT2, molecular clone HIV-1 (D67N/K70R/M184V/T215Y/K219Q), read-out: Selected Varient EC50", "result": 53400, "unit": "nM"}, {"measurement": "EC50", "setting": "[6]; Human immunodeficiency virus 1, MT2, molecular clone HIV-1 (D67N/K70R/T215Y/K219Q), read-out: Selected Varient EC50", "result": "> 90000", "unit": "nM"}, {"measurement": "EC50", "setting": "[6]; Human immunodeficiency virus 1, MT2, molecular clone HIV-1 (M41L/D67N/M184V/H208Y/L210W/R211K/L214F/T215Y), read-out: Selected Varient EC50", "result": 50200, "unit": "nM"}, {"measurement": "EC50", "setting": "[6]; Human immunodeficiency virus 1, MT2, molecular clone HlV-1 (M184V), read-out: Selected Varient EC50", "result": 16800, "unit": "nM"}, {"measurement": "EC50", "setting": "[6]; Human immunodeficiency virus 1, MT2, parent strain HIV-1 (xxLAI), row HIV-1 (D67N/K70R/M184V/T215Y/K219Q), read-out: Untreated EC50", "result": 20000, "unit": "nM"}, {"measurement": "EC50", "setting": "[6]; Human immunodeficiency virus 1, MT2, parent strain HIV-1 (xxLAI), row HIV-1 (D67N/K70R/T215Y/K219Q), read-out: Untreated EC50", "result": 20000, "unit": "nM"}, {"measurement": "EC50", "setting": "[6]; Human immunodeficiency virus 1, MT2, parent strain HIV-1 (xxLAI), row HIV-1 (M41L/D67N/M184V/H208Y/L210W/R211K/L214F/T215Y), read-out: Untreated EC50", "result": 20000, "unit": "nM"}, {"measurement": "EC50", "setting": "[6]; Human immunodeficiency virus 1, MT2, parent strain HIV-1 (xxLAI), row HlV-1 (M184V), read-out: Untreated EC50", "result": 20000, "unit": "nM"}]}]}
